{"source": "paper PMC8945229", "about": "“Development and Biological Characterization of a Novel Selective TrkA Agonist with Neuroprotective Properties against Amyloid Toxicity” (Biomedicines, 2022)", "key": {"Erk1/2 [1]": {"test_system": "Erk1/2", "parameters": "method as in PMID 27618740", "settings": "cited from earlier work"}, "TrkA [2]": {"target": "T1, TrkA (Rattus norvegicus, UniProt P35739)", "T1 construct": "we used PC12 cells, a cell line that express TrkA and p75^NTR; host or cells: PC12", "T1 sequence (P35739 33-799)": "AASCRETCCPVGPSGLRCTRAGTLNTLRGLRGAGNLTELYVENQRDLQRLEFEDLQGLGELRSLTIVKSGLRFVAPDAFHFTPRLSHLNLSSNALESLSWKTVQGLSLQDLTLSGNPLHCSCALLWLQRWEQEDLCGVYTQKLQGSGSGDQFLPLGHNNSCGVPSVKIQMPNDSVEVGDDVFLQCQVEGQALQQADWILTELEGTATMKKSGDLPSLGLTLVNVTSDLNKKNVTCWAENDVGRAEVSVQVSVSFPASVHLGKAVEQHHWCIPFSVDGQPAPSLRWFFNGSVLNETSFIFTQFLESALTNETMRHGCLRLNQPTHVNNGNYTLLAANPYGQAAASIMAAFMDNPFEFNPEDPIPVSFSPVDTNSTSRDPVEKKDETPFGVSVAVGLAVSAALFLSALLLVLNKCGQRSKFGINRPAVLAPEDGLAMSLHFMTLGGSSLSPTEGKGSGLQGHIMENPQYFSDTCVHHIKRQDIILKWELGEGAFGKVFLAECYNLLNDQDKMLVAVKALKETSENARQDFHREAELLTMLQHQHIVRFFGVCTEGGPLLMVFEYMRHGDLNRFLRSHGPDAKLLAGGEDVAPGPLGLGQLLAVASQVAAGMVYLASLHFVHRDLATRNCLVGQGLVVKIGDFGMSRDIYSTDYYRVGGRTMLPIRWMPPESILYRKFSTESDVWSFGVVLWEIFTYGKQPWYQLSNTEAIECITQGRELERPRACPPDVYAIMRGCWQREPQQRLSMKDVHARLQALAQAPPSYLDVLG", "parameters": "method as in PMID 27618740", "settings": "cited from earlier work"}, "[3]": {"parameters": "method as in PMID 27498123, PMID 33638308", "settings": "t = 60 min; cited from earlier work"}, "γ-secretase": {"test_system": "γ-secretase", "experiment": "γ-secretase activity / APP processing in U2OS APP-C99-tGFP cells", "format": "cell-based", "settings": "3 μM, positive control", "protocol": "PC12 and HEK293T cells were obtained from LGC Promochem GmbH (Teddington, UK) and cultured under the conditions specified by the manufacturer. NIH3T3 cells were stably transfected with human TrkB plasmid. PC12 cells were grown in DMEM medium (11965084, Gibco, Grand Island, NY, USA) containing 10% Horse Serum (16050122, Gibco, Grand Island, NY, USA), 5% Fetal Bovine Serum (10270106, Gibco, Grand Island, NY, USA), 100 units/mL Penicillin and 0.1 mg/mL Streptomycin (15140122, Gibco, Grand Island, NY, USA) at 5% CO2 and 37 °C. Cells were used between passages 5–20. HEK293T and NIH3T3 cells were grown in the same medium as PC12 cells supplemented with 10% Fetal Bovine Serum and lacking Horse Serum. For transient transfection of HEK293T cells, lipofectamine was used and cells were transfected with human p75^NTR and Traf6 plasmids. To determine the intracellular activity of endogenous secretases, we tagged (tGFP) a truncated mutant (Tm) of APP containing the original amino acids sequence from M516 to N773. This Tm conserves the secretases cleavage sites, clathrin binding site, tau protein binding site, collagen binding site and some glycosylation sites critical for protein localization and intracellular trafficking. The cDNA of the TmAPP gene was amplified by PCR and subcloned into pturbo-GFP vector. The construction was transfected into U2OS cells (ATCC Cat Number HTB-96) using Lipofectamine LTX (Thermo Fisher Scientific, Waltham, MA, USA). After 48 h, individual cells were plated in MTP96 plates using F.SIGHT (CYTENA GmbH, Freiburg, Germany), and cultured in complete medium containing 250 μg/mL G418 for selection. The selection medium was changed every two to three days. The cells were allowed to grow for 3 to 4 weeks, after which clones were isolated for further analysis. Resistant clones were checked by RT-PCR and epifluorescence microscopy.\nThe Alzheimer’s Disease (AD) phenotype is partly attributed to the toxic effects caused by oligmeric Aβ, which results in reduced neuronal trophic support, caused by deregulation of neurotrophic signaling. It is therefore reasonable that a small molecule that can selectively activate TrkA signaling and promote neuronal survival could alleviate the detrimental effects caused by toxic Aβ oligomers, especially during the early phases of the disease or modulate APP misprocessing and therefore reduce the production of the toxic Aβ. The U2OS stably expressing APP-C99-tGFP cell line was used in order to monitor γ-secretase activity, the process responsible for Aβ production from APP. The assay achieves this by measuring the levels of fluorescent APP-C99 construct produced by β-secretase activity. When γ-secretase is active, the construct is cleaved, leading to Aβ production. […] Therefore, higher fluorescence levels correspond to decreased γ-secretase activity and Aβ aggregate formation by extension. […] In addition, in order to investigate whether ENT-A013 can protect cells against Aβ-induced toxicity we isolated neurons from the hippocampus of E17.5 mouse embryos, a brain area that is heavily affected in AD. Neurons were left in culture for 16–18 DIV and then were treated with oligomeric Aβ and ENT-A013 for 48 h. Subsequently, cells were fixed and cell death was assessed using TUNEL assay.\n(A,B) Primary hippocampal neurons were treated for 48 h with oligomeric Aβ in the presence of ENT-A013 and TUNEL assay was used to quantify cell death. Representative images from 3 independent experiments. Data are shown as ±SEM. One-way ANOVA, Tukey’s Test correction: ** p < 0.01; *** p < 0.001. (C) Aggregate formation on untreated cells, treated with DAPT inhibitor of γ-secretase or with compound ENT-A013. […] Aggregate formation was quantified with a BD Pathway 855 High-Content Bioimager and Attonvision software."}, "PC12 cells": {"test_system": "PC12 cells", "experiment": "CellTox assay, serum deprivation-induced cell death", "format": "cell-based", "settings": "serum deprivation; for CellTox positive cells normalized to total number of cells: 24 h, 500 nM; for IC50: CellTox, read-out: IC50 (anti-apoptotic dose–response)", "protocol": "CellTox assay (G8742, Promega Corporation, Maddison, WI, USA) was used to assess survival of PC12 cells under serum deprivation conditions. PC12 cells were plated in 96-well plates, starved of serum for 4 h and subsequently treated with NGF (100 ng/mL) or ENT-A013 (500 nM) in the presence or absence of TrkA inhibitor GW441756 (20 μM, G-190, Alomone labs, Jerusalem, Israel) for 24 h. CellTox assay reagents and Hoescht (1:10,000, H3570, Invitrogen, Waltham, MA, USA) were added to each well for 30′ and cells were then imaged with a Zeiss AXIO Vert A1 fluorescent microscope (Zeiss, Jena, Germany). CellTox positive cells were normalized to total number of cells for each image."}, "TrkA [4]": {"target": "T1, TrkA", "experiment": "TrkA phosphorylation in PC12 cells (IP with TrkA antibody, Western blot against phosphorylated Tyrosine)", "format": "cell-based", "settings": "for time TrkA phosphorylation is sustained after treatment: PC12 cells, 10, 30 or 60′ treatment", "protocol": "For immunoprecipitation experiments PC12 or HEK293T, cells were used when at 70–80% confluent. […] Cells were then lysed in Pierce™ IP Lysis Buffer (87788, Thermo Fischer Scientific, Waltham, MA, USA) containing proteases (539138, Calbiochem, Darmstadt, Germany) and phosphatase inhibitors (524629, Calbiochem, Darmstadt, Germany). Lysates were then immunoprecipitated overnight at 4 °C with TrkA antibody (1:100, 06-574, Sigma-Aldrich, St. Louis, MO, USA) (Table S1) or p75^NTR antibody (1:100, ab6172, Abcam plc., Cambridge, UK) followed by 4 h incubation with protein G-plus agarose beads (sc-2002, Santa Cruz Biotechnology, Inc., Dallas, TX, USA). Beads were then collected, washed 3X with lysis buffer, resuspended in SDS loading buffer and subjected to Western blot against phosphorylated Tyrosine (1:1000, BAM1676, R&D Systems, Inc., Minneapolis, MN, USA) or Traf6 antibody (1:2000, ab33915, Abcam, plc., Cambridge, UK). Whole cell lysates were subjected to Western blot against TrkA (1:1000, 06-574, Sigma-Aldrich, St. Louis, MO, USA), phosphorylated TrkB (1:1000, ABN1381, Sigma-Aldrich, St. Louis, MO, USA), phosphorylated TrkC (1:1000, STJ90960, St John’s Laboratory, Ltd., London, UK), TrkB (1:1000, 07-225-I, Sigma-Aldrich, St. Louis, MO, USA), TrkC (1:1000, C44H5, Cell Signaling Technology, Danvers, MA, USA), p75 (1:1000, 839701, Biolegend, Inc., San Diego, CA, USA), Traf6 (1:2000, ab33915, Abcam, plc., Cambridge, UK) phosphorylated Akt (1:1000, 9721S, Cell Signaling Technology, Danvers, MA, USA), phosphorylated Erk1/2 (1:1000, 9101S, Cell Signaling Technology, Danvers, MA, USA), total Akt (1:1000, 4691S Cell Signaling Technology, Danvers, MA, USA) and total Erk1/2 (1:1000, 4695S, Cell Signaling Technology, Danvers, MA, USA)."}, "Erk1/2 [5]": {"test_system": "Erk1/2", "experiment": "Erk1/2 phosphorylation in PC12 cells (Western blot)", "format": "cell-based", "settings": "for Erk1/2 phosphorylation: 500 nM, 30′", "protocol": "For immunoprecipitation experiments PC12 or HEK293T, cells were used when at 70–80% confluent. Cells were starved of serum for 4 h and subsequently treated with 100 ng/mL NGF or 500 nM of compound ENT-A013 for 30′. Cells were then lysed in Pierce™ IP Lysis Buffer (87788, Thermo Fischer Scientific, Waltham, MA, USA) containing proteases (539138, Calbiochem, Darmstadt, Germany) and phosphatase inhibitors (524629, Calbiochem, Darmstadt, Germany). Lysates were then immunoprecipitated overnight at 4 °C with TrkA antibody (1:100, 06-574, Sigma-Aldrich, St. Louis, MO, USA) (Table S1) or p75^NTR antibody (1:100, ab6172, Abcam plc., Cambridge, UK) followed by 4 h incubation with protein G-plus agarose beads (sc-2002, Santa Cruz Biotechnology, Inc., Dallas, TX, USA). Beads were then collected, washed 3X with lysis buffer, resuspended in SDS loading buffer and subjected to Western blot against phosphorylated Tyrosine (1:1000, BAM1676, R&D Systems, Inc., Minneapolis, MN, USA) or Traf6 antibody (1:2000, ab33915, Abcam, plc., Cambridge, UK). Whole cell lysates were subjected to Western blot against TrkA (1:1000, 06-574, Sigma-Aldrich, St. Louis, MO, USA), phosphorylated TrkB (1:1000, ABN1381, Sigma-Aldrich, St. Louis, MO, USA), phosphorylated TrkC (1:1000, STJ90960, St John’s Laboratory, Ltd., London, UK), TrkB (1:1000, 07-225-I, Sigma-Aldrich, St. Louis, MO, USA), TrkC (1:1000, C44H5, Cell Signaling Technology, Danvers, MA, USA), p75 (1:1000, 839701, Biolegend, Inc., San Diego, CA, USA), Traf6 (1:2000, ab33915, Abcam, plc., Cambridge, UK) phosphorylated Akt (1:1000, 9721S, Cell Signaling Technology, Danvers, MA, USA), phosphorylated Erk1/2 (1:1000, 9101S, Cell Signaling Technology, Danvers, MA, USA), total Akt (1:1000, 4691S Cell Signaling Technology, Danvers, MA, USA) and total Erk1/2 (1:1000, 4695S, Cell Signaling Technology, Danvers, MA, USA)."}}, "data": [{"molecule": "C[C@]12CC[C@H](O)CC1=CC[C@@H]1[C@@H]2CC[C@@]2(C)[C@H]1CC[C@@]21O[C@@H]1CO", "note": "[BNN27]", "values": [{"measurement": "time beyond which Erk1/2 is not activated", "setting": "Erk1/2 [1]", "value": "≤ 15", "unit": "min"}, {"measurement": "time TrkA is phosphorylated after treatment", "setting": "TrkA [2]", "value": "up to 6 hr"}, {"measurement": "residual of time zero", "setting": "[3]", "value": 70, "unit": "%"}]}, {"molecule": "C[C@H](NC(=O)Cc1cc(F)cc(F)c1)C(=O)N[C@H](C(=O)OC(C)(C)C)c1ccccc1", "note": "[DAPT, reference compound]", "values": [{"measurement": "fluorescence levels (APP-C99-tGFP, in words)", "setting": "γ-secretase", "value": "Fluorescence levels increased"}]}, {"molecule": "CC12CCC(O)CC1=CCC1C2CCC2(C)C1CCC21CC1C=CBr", "note": "(stereo not drawn) [ENT-A013E]", "values": [{"measurement": "CellTox positive cells normalized to total number of cells", "setting": "PC12 cells", "value": "0.07 ± 0.02"}, {"measurement": "IC50", "setting": "PC12 cells", "value": 281, "unit": "nM"}, {"measurement": "time TrkA phosphorylation is sustained after treatment", "setting": "TrkA [4]", "value": "up to 1 hr"}, {"measurement": "time Erk1/2 phosphorylation is sustained after treatment", "setting": "Erk1/2 [5]", "value": "up to 1 hr"}, {"measurement": "Erk1/2 phosphorylation", "setting": "Erk1/2 [5]", "value": "7.87 ± 2.23 % of control FC"}]}, {"molecule": "CC12CCC(O)CC1=CCC1C2CCC2(C)C1CCC21CC1C=CBr", "note": "(stereo not drawn) [ENT-A013Z]", "values": [{"measurement": "CellTox positive cells normalized to total number of cells", "setting": "PC12 cells", "value": "0.08 ± 0.02"}, {"measurement": "IC50", "setting": "PC12 cells", "value": 273, "unit": "nM"}, {"measurement": "time TrkA phosphorylation is sustained after treatment", "setting": "TrkA [4]", "value": "up to 1 hr"}, {"measurement": "time Erk1/2 phosphorylation is sustained after treatment", "setting": "Erk1/2 [5]", "value": "up to 1 hr"}, {"measurement": "Erk1/2 phosphorylation", "setting": "Erk1/2 [5]", "value": "4.13 ± 1.46 % of control FC"}]}, {"molecule": "NGF: Nerve Growth Factor, neurotrophin acting through TrkA and p75NTR receptors", "values": [{"measurement": "TrkA phosphorylation", "setting": "TrkA [4]; PC12 cells, compound 500 nM or NGF 100 ng/mL, 30′", "value": "2.30 ± 0.62 % of control FC"}]}]}
